Experiments:
retina [1] = test: In vivo toxicity of intravitreally injected SH-11037 (histology, immunofluorescence); design: species or system C57BL/6J mice
Method: (§1) All mouse experiments followed the guidelines of the Association for Research in Vision and Ophthalmology Statement for the Use of Animals in Ophthalmic and Visual Research and were approved by the Indiana University School of Medicine Institutional Animal Care and Use Committee. Wild-type female C57BL/6J mice, 6-8 weeks of age, were purchased from the Jackson Laboratory (Bar Harbor, Me.). Intraperitoneal injections of 17.5 mg/kg ketamine hydrochloride and 2.5 mg/kg xylazine mixture were used for anesthesia.
(§2) Injections were given under anesthesia in a 0.5 μL volume using a 33-gauge needle. The needle was kept in place for 1 minute to prevent the reflux of solution when the needle was removed. SH-11037 was dissolved in DMSO then diluted in PBS to a final concentration of 0.5% DMSO. Eyes were numbed with tetracaine solution before the injection, and triple antibiotic ointment was used immediately after the injection to prevent infection. A masked researcher undertook imaging and analysis to avoid bias.
Toxicity of intravitreally injected SH-11037 was initially assessed by histology and immunofluorescence. The presence of acute ocular toxicity was investigated by injecting SH-11037 at different concentrations (0.1, 1, 10, and 100 μM), while long-term effects were tested by injecting 10 μM SH-11037. Mice were sacrificed 3 and 14 days post injections, respectively. Eyes were enucleated and fixed in 4% PFA overnight, and then the eyes were paraffin embedded and sectioned at 5 μm thickness by the Indiana University School of Medicine Histology Core. Mayer's hematoxylin and eosin (H&E) staining was performed, and retinal morphology was quantified by calculating the ratio of A (the distance from the ganglion cell layer to the outer edge of the inner nuclear layer) to B (the distance from the ganglion cell layer to the outer edge of the outer nuclear layer).
For immunofluorescence, sections were deparaffinised with xylenes and ethanol series and boiled in citrate buffer for 5 minutes. […]

neural retina function = test: Retinal electrophysiology (ERG) after intravitreal injection; type: in vivo, C57BL/6J mice; conditions: 14 days after 100 μM SH-11037 injections, relative to control eyes
Method: as §1
Injections were given under anesthesia in a 0.5 μL volume using a 33-gauge needle. The needle was kept in place for 1 minute to prevent the reflux of solution when the needle was removed. […]
Electroretinograms (ERG) were obtained from animals 14 days post intravitreal injection of 100 μM SH-11037, 0.2 ng mouse anti-VEGF neutralizing antibody (R&D Systems, Minneapolis, Minn., USA)+0.3 μM SH-11037, or vehicle control and performed as described in Cai et al., EMBO Mol Med, 2012 4(9):980-91. Briefly, scotopic rod recordings were performed on overnight dark-adapted mice, with 10 increasing light intensities of white light and responses were recorded with a visual electrodiagnostic system (UTAS-E 2000; LKC Technologies, Gaithersburg, Md.). […] Ten responses were recorded and averaged at each light intensity. […]

[2] = tested on: human retinal endothelial cells (HRECs); conditions: cited from earlier work
mouse choroidal tissues = test: Choroidal sprouting assay (ex vivo); type: cell-based, C57Bl/6J mice
Method: Sprouting of choroidal layers was tested as previously described in Shao et a., PLoS One, 2013 8(7): e69552. Briefly, 6-8 week old C57Bl/6J mice eyes were enucleated immediately after euthanasia. Peripheral parts of the choroid/sclera layer were separated and cut into pieces. Choroid fragments were then placed on growth factor-reduced Matrigel™ (30 μL/well; BD Biosciences, San Jose, Calif.) in 24-well plates. The plates were then incubated at 37° C. for about 10 minutes to allow the Matrigel to solidify. Endothelial Growth Medium (EGM-2) was prepared by mixing the contents of an EGM-2 “Bullet Kit” (Cat no. CC-4176) with Endothelial Basal Medium (EBM) (Lonza, Walkersville, Md.). Penicillin-streptomycin and 2.5 mg/mL Plasmocin were added to the final medium and used for this assay. Medium (500 μL) was added to each well of the plate and incubated at 37° C. with 5% CO2 for 72 hours before any treatments were added. Medium was changed after 48 hours. SH-11037 was synthesized as taught in WO2014/182695 (incorporated by reference to the extent it is consistent herewith) and dissolved in DMSO and then tested at 0.03, 0.3, and 1 μM concentrations for 48 hours. The final concentration of DMSO in each well was 0.2%. Trypan blue 0.4% solution (Fisher Scientific, Pittsburgh, Pa., USA) was used to assess cell viability. Images were taken using an EVOS-fl digital microscope (AMG, Mill Creek, Wash., USA) and data were analyzed as the sprouting distance in four different directions using ImageJ software v. 1.48V.

[3] = tested on: retinal neovascularization; conditions: in vivo; cited from earlier work
CNV lesions = test: Laser-induced choroidal neovascularization (L-CNV) model; type: in vivo, C57BL/6J mice; conditions: for reduction in CNV lesion volume (Z-stack images of agglutinin-stained choroidal flatmounts): day 14, vs vehicle control; for reduction of CNV lesion volume: day 14, vs control eyes, P<0.01
Method: as §1, §2
Laser photocoagulation was performed as described in Sulaiman et al., J Ocul Pharmacol Ther, 2015 and Poor et al., Invest Opthalmol Vis Sci, 2014 55(10): 6525-34. Briefly, eyes were dilated using 1% tropicamide, then underwent laser treatment using 50 μm spot size, 50 ms duration, and 250 mW pulses of an ophthalmic argon green laser, wavelength 532 nm, coupled to a slit lamp. A coverslip was used to allow viewing of the posterior pole of the eye. Each eye received 3 laser burns centered around the optic nerve at 12, 3, and 9 o'clock positions. The appearance of a bubble at the site of laser application was used to identify laser-induced damage of Bruch's membrane. Lesions in which bubbles were not observed were excluded from analysis. The effect of SH-11037 on the L-CNV model using final estimated vitreal concentrations of 0.1, 0.3, 1, or 10 μM SH-11037 was tested. Anti-mouse VEGF164 neutralizing antibody (R&D Systems, Minneapolis, Minn.) was tested at 0.2, 1, and 5 ng/eye. Vehicle (PBS+0.5% DMSO) was used as a negative control. All injections were given a single time, immediately after laser treatment. In testing the effects of SH-11037 on existing L-CNV lesions, vehicle, anti-VEGF164, and SH-11037 (10 μM) injections were given a single time, 5 days post laser.
Optical coherence tomography (OCT) was performed at the indicated times using the Micron III intraocular imaging system (Phoenix Research Labs, Pleasanton, Calif.). Before the procedure, eyes were dilated with 1% tropicamide solution (Alcon, Fort Worth, Tex.) and lubricated with hypromellose ophthalmic demulcent solution (Gonak) (Akorn, Lake Forest, Ill.). Mice were then placed on a custom heated stage that moves freely to position the mouse eye for imaging. Several horizontal and vertical images were taken per lesion to allow calculation of CNV lesion volume. Three-dimensional quantification of CNV lesion volumes was performed using an ellipsoid quantification method as described in Sulaiman et al., J Ocul Pharmacol Ther, 2015, 31(8):447-54. FA was performed 14 days post laser by intraperitoneal injections of 50 μL of 25% fluorescein sodium (Fisher Scientific, Pittsburgh, Pa.). Fundus images were taken using the Micron III system and Streampix software.
Choroidal flatmount preparation, staining, and imaging were done as described in Sulaiman et al., J Ocul Pharmacol Ther, 2015, 31(8):447-54. ImageJ software was used to analyze Z-stack images; the summation of the whole stained area in each section, multiplied by the distance between sections (3 μm) was used as an index for the CNV lesion volume. The volumes of the 3 lesions in each eye were averaged and considered as an n=1 for statistical analysis.

[4] = tested on: pre-existing retinal vasculature; test: Staining of pre-existing retinal vasculature (isolectin B4 retina flatmounts); type: in vivo, C57BL/6J mice; conditions: 14 days after 100 μM intravitreal injection, vs vehicle control
[5] = tested on: new vessel growth induced by bFGF; conditions: chick chorioallantoic membrane; cited from earlier work
retina [6] = conditions: 10 μM into the vitreous of normal adult mice; cited from earlier work
[7] = tested on: choroidal neovascularization; conditions: mouse, in vivo; cited from earlier work

Compound: COc1ccc(CC2COc3cc(OC)c(OC)c(OC)c3C2=O)cc1OC(=O)[C@H](Cc1ccccc1)NC(=O)OC(C)(C)C (some centres unmarked) [SH-11037]
- retinal thickness (A/B ratio) morphological changes (retina [1]; intravitreal SH-11037, 3 and 14 days post injections, vs vehicle-treated and uninjected eyes): absence of morphological changes
- GFAP, cleaved caspase 3, TUNEL staining and MCP1 (retinal injury, apoptosis, inflammation) (retina [1]; intravitreal SH-11037, 3 and 14 days, vs vehicle-treated controls): Neither shorter-nor longer-term SH-11037 treated retina showed any significant increases
- histological changes in H&E stained retinal sections (retina [1]; intravitreal SH-11037 up to 100 μM final concentration, 3 and 14 days post injection, vs vehicle and no injection control eyes): no histological changes
- ERG scotopic a- and b-waves, and photopic b-waves (neural retina function): not significantly different
- induction of apoptosis in HRECs [2]: without inducing apoptosis
- HREC migration ([2]; concentration-dependent): inhibited
- HREC proliferation ([2]; concentration-dependent): inhibited
- HREC tube formation ([2]; concentration-dependent): inhibited
- ability of choroidal tissues to form sprouts (sprouting distance) (mouse choroidal tissues; 0.03, 0.3, 1 μM, 48 hours, concentration-dependent, vs vehicle treated controls): significantly inhibited
- cell viability of choroidal sprouts by Trypan blue staining (mouse choroidal tissues; 48 hours, 1 μM SH-11037 vs DMSO controls): absence of significant cell death
- potent inhibitory concentration in choroidal sprouting (mouse choroidal tissues; ex vivo choroid microvascular tissue): 0.03 µM
- pathogenic retinal neovascularization in OIR model [3]: significantly suppressed
- reduction in CNV lesion volume (Z-stack images of agglutinin-stained choroidal flatmounts) (CNV lesions; 0.1 μM intravitreal): no reduction
- reduction in CNV lesion volume (Z-stack images of agglutinin-stained choroidal flatmounts) (CNV lesions; 0.3 μM intravitreal): no reduction
- reduction of CNV lesion volume (CNV lesions; 1 μM intravitreal): about 42%
- vascular volumes of pre-existing CNV lesions relative to vehicle (CNV lesions; 10 μM intravitreal single injection 5 days post laser, quantified 14 days post laser): significantly suppressed
- reduction of CNV lesion volume (CNV lesions; 10 μM intravitreal): ~55%
- leakiness of CNV lesions by fluorescein angiography (CNV lesions; 14 days post laser, relative to vehicle treatment): reduced leakiness
- CNV vascular volumes at day 14 versus 5 days control (CNV lesions; injection 5 days post laser (10 μM SH-11037; 5 ng anti-VEGF164)): no significant difference
- CNV lesion volumes by OCT, ellipsoid volume quantification (CNV lesions; intravitreal 0.1, 0.3, 1, 10 μM immediately after laser, 7 days post-laser, vs vehicle, dose-dependent): significantly lower
- changes in pre-existing retinal vessels [4]: No changes

Compound: COc1ccc(CC2COc3cc(O)c(OC)c(O)c3C2=O)cc1O (centres unmarked) [cremastranone, 5,7-dihydroxy-3-(3-hydroxy-4-methoxybenzyl)-6-methoxychroman-4-one]
- blocking new vessel growth induced by bFGF [5]: as effective as retinoic acid
- pathogenic retinal neovascularization in OIR model [3]: showed efficacy
- apoptosis of retinal cells (retina [6]): nor did it induce apoptosis
- cytotoxic or inflammatory effects on the retina (retina [6]): no cytotoxic or inflammatory effects
- pathogenic neovascularization in laser photocoagulation CNV model [7]: showed efficacy
